Assay: Antagonist activity at CRTH2 receptor in human whole blood assessed as inhibition of PGD2-induced eosinophil shape change after 10 mins by fluorescence assay

| Compound | IC50 [nM] |
| --- | --- |
| Cc1noc(C2CC2)c1Cc1cc(C(F)(F)F)ccc1-c1cn(CC(=O)O)c2ccc(C(F)(F)F)nc12 | 54 |
| Cc1ccc2c(CC(=O)O)cn(-c3ccc(C(F)(F)F)cc3Cc3c(C4CC4)noc3C3CC3)c2n1 | 60 |
| Cc1nnc(C2CC2)n1Cc1cc(C(F)(F)F)ccc1-n1cc(CC(=O)O)c2ccc(F)cc21 | 7 |
| Cc1nnc(C2CC2)n1Cc1cc(C(F)(F)F)ccc1-c1cn(CC(=O)O)c2ccc(F)cc12 | 2 |
| Cc1ccc2c(CC(=O)O)cn(-c3ccc(C(F)(F)F)cc3Cc3c(C)noc3C3CC3)c2n1 | 5 |
| Cc1noc(C2CC2)c1Cc1cc(F)ccc1-c1cn(CC(=O)O)c2ccc(C(F)(F)F)cc12 | 16 |
| Cc1ccn2c(CC(=O)O)cc(-c3ccc(C(F)(F)F)cc3Cc3c(C)noc3C3CC3)c2n1 | 26 |

Next, values leading:

| IC50 [nM] | Compound |
| --- | --- |
| 10 | Cc1ccc2c(CC(=O)O)cn(-c3ccc(Cl)cc3Cc3c(C4CC4)noc3C3CC3)c2n1 |
| 1 | Cc1ccc(-n2cc(CC(=O)O)c3ccc(C)nc32)c(Cn2c(C)nnc2C)c1 |
| 6 | Cc1ccc2c(CC(=O)O)cn(-c3ccc(F)cc3Cc3c(C)cnn3C)c2n1 |
| 5 | Cc1ccc2c(CC(=O)O)cn(-c3ccc(Cl)cc3Cn3c(C)nnc3CCc3ccccc3)c2n1 |
| 4 | Cc1ccc2c(CC(=O)O)cn(-c3ccc(Cl)cc3Cn3c(C)nnc3C3CC3)c2n1 |
| 2 | Cc1ccc2c(CC(=O)O)cn(-c3ccc(Cl)cc3Cn3c(C)nnc3Cc3ccccc3)c2n1 |
| 1 | Cc1ccc2c(CC(=O)O)cn(-c3ccc(F)cc3Cc3c(C)noc3C3CC3)c2n1 |
